The text below walks through data of patent publication US20250002471A1 (Gilead Sciences, Inc., priority 2020, published 2025).

Test [1] has as its target T1, TLR7 (Homo sapiens, UniProt Q9NYK1).
T1 construct: lymphocytes, monocytes and dendritic cells that express TLR7, TLR8 and TLR9; endogenous in cells; host or cells: human PBMCs from healthy donors
T1 sequence (Q9NYK1 27-1049): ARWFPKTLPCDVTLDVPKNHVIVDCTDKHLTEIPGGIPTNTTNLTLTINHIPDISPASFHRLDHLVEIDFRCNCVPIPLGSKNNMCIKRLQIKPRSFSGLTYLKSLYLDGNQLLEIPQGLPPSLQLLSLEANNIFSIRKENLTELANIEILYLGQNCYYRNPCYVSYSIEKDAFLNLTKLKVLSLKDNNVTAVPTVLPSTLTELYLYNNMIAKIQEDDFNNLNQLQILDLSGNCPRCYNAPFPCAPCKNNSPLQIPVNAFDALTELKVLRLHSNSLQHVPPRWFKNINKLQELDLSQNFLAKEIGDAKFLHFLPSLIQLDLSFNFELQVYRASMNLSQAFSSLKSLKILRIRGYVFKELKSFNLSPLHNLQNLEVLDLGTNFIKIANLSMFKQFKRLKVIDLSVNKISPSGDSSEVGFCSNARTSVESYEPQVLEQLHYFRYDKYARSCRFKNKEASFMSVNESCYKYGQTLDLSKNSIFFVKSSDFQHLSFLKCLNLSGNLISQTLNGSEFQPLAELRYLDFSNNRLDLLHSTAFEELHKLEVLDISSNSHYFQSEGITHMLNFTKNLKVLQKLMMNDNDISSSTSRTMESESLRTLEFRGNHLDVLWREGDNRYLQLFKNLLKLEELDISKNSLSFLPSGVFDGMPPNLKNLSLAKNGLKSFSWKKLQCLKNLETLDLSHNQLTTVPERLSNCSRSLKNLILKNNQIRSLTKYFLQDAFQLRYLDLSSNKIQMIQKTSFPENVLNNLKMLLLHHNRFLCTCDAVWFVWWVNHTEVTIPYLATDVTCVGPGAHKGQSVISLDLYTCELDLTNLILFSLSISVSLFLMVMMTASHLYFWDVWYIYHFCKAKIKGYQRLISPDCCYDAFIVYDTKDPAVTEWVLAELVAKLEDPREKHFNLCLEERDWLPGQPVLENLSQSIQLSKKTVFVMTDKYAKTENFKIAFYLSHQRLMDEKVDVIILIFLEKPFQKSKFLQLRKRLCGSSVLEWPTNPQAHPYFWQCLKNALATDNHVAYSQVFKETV
The experiment in a line: Human PBMC cell-based assay, TLR7 agonist GS-986 stimulation, cytokine (IL-6 and IFNα) readout. Conditions: human PBMCs, read-out: TLR-7 EC50. The method, boiled down: (§1)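 Cryopreserved healthy-donor PBMCs (100,000 cells/well, RPMI-1640 + 10% FBS) preincubated 1 h at 37 °C with antagonist (10-point dose response), then stimulated 6 h with GS-986 (400 nM final, TLR7) or ODN-2216 (3 μM final, TLR9). Supernatant IL-6 and IFNα measured by electrochemiluminescence immunoassay; EC50 from sigmoidal fit.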

Test [2] addresses T2, TLR9 (Homo sapiens, UniProt Q9NR96).
T2 construct: lymphocytes, monocytes and dendritic cells that express TLR7, TLR8 and TLR9; endogenous in cells; host or cells: human PBMCs from healthy donors
T2 sequence (Q9NR96 26-1032): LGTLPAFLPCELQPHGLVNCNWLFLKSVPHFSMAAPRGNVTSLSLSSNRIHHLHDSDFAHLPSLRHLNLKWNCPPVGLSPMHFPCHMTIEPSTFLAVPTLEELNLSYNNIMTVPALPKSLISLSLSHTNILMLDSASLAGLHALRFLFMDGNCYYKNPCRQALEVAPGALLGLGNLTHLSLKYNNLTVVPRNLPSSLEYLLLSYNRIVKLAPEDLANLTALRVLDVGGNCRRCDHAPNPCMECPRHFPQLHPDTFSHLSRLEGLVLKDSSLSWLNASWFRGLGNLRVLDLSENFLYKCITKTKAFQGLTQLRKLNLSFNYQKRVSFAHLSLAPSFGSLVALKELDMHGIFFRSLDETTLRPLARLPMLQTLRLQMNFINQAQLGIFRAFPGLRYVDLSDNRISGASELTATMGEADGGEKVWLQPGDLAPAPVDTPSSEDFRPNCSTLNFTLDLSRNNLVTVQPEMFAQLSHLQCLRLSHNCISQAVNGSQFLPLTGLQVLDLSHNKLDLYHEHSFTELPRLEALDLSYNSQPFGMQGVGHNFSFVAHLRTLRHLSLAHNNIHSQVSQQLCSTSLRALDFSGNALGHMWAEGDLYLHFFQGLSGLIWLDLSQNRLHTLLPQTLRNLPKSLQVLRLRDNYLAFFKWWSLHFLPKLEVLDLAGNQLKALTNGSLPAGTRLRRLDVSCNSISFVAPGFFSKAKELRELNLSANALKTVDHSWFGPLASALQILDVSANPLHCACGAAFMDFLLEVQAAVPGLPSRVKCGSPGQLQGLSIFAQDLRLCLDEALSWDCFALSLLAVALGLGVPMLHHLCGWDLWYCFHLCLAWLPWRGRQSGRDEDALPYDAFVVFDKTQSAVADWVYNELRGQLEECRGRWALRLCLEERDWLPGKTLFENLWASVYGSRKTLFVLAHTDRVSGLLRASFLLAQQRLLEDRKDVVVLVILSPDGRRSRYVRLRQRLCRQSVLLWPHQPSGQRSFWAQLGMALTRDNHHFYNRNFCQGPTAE
In words: Human PBMC cell-based assay, TLR9 agonist ODN-2216 stimulation, cytokine (IL-6 and IFNα) readout. Conditions: human PBMCs, read-out: TLR-9 EC50. The method, boiled down: as §1

The target in test [3] is cloned hERG potassium channel encoded by the KCNH2 gene (Homo sapiens, UniProt Q12809). The experiment in a line: hERG FASTPatch assay (QPatch patch clamp, HEK293T cells). Type of test: cell-based. Conditions: HEK293T cells, 1, 3, 10 and 30 uM, room temperature; Table 27. The protocol: The FASTPatch® Assay (Charles River) was used to examine the in vitro effects of the compounds provided herein on the cloned hERG potassium channel encoded by the KCNH2 gene and stably expressed in HEK293T cells. Vehicle, test and control article formulations were prepared by diluting DMSO stock solutions in HB-PS (HEPES-buffered physiological saline solution) and were delivered to cells via the QPatch robot pipetting system to a final concentration of 0.3% DMSO. Test compound final concentrations of 1, 3, 10 and 30 uM were applied to cells (n >3, where n=the number of cells/concentration) in ascending order in at least three minute intervals separated by solution exchange. The positive control, 50 nM cisparide, was applied in the same manner. Cell membrane currents were recorded at room temperature with up to 48 parallel patch clamp amplifiers in the QPatch HT® or QPatch HTX® system, and only cells with validated whole-cell recordings (seal resistance >200 MQ and leak current <25% channel current) were used. Onset and block of hERG current was measured using a stimulus voltage pattern consisting of a 500 ms prepulse to −40 mV, a 2-second activating pulse to +40 mV, followed by a 2-second test pulse to −40 mV. The pulse pattern was repeated continuously at 10-second intervals from a holding potential of −80 mV. % Block={1-1/[1+([Test]/IC50)^N]}*100% Where [Test] is the concentration of test article, IC50 is the concentration of the test article producing half-maximal inhibition, N is the Hill coefficient and % Block is the percentage of current inhibited at each concentration of the test article. Nonlinear least squares fits will be solved with the Solver add-in for Excel 2000 or later (Microsoft, Redmon, WA). TurboSol analysis for test compound solubility was performed for each concentration tested using a Nephelostar reader measuring light scatter from a 635 nm laser source. Based on validation experiments, light scatter above four times the background level was considered an indication of the presence of particles in suspension.
cloned hERG potassium channel encoded by the KCNH2 gene, sequence (Q12809 whole entry): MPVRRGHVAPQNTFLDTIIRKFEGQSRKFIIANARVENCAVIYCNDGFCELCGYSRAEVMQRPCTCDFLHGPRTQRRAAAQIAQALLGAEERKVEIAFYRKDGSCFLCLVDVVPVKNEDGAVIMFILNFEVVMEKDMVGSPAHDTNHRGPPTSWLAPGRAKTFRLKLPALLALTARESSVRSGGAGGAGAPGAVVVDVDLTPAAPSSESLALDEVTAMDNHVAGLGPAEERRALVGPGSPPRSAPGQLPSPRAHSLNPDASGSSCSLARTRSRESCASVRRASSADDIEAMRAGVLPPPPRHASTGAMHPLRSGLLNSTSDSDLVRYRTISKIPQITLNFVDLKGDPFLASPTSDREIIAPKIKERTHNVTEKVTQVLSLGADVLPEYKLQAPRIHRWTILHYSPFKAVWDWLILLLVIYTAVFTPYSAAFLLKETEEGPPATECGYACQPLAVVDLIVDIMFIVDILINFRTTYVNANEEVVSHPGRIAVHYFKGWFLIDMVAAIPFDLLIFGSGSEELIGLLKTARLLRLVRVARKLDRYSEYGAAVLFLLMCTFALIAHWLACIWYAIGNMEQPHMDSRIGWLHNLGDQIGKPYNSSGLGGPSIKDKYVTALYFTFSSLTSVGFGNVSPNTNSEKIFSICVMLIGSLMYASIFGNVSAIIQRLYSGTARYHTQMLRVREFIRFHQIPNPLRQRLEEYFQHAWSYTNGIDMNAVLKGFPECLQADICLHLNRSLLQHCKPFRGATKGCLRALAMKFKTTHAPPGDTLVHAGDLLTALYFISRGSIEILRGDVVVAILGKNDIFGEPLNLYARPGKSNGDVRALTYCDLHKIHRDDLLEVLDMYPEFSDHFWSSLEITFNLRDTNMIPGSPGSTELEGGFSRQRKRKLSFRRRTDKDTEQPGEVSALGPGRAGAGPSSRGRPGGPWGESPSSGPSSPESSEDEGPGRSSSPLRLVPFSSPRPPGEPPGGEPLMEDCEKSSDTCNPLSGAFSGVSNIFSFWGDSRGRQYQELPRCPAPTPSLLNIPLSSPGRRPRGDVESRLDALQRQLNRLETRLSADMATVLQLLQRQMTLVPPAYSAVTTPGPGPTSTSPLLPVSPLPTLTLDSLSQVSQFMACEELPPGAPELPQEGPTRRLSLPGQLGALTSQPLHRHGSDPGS

Test [4] concerns the target T3, TLR8 (Homo sapiens, UniProt Q9NR97).
T3 construct: lymphocytes, monocytes and dendritic cells that express TLR7, TLR8 and TLR9; endogenous in cells; host or cells: human PBMCs from healthy donors
T3 sequence (Q9NR97 27-1041): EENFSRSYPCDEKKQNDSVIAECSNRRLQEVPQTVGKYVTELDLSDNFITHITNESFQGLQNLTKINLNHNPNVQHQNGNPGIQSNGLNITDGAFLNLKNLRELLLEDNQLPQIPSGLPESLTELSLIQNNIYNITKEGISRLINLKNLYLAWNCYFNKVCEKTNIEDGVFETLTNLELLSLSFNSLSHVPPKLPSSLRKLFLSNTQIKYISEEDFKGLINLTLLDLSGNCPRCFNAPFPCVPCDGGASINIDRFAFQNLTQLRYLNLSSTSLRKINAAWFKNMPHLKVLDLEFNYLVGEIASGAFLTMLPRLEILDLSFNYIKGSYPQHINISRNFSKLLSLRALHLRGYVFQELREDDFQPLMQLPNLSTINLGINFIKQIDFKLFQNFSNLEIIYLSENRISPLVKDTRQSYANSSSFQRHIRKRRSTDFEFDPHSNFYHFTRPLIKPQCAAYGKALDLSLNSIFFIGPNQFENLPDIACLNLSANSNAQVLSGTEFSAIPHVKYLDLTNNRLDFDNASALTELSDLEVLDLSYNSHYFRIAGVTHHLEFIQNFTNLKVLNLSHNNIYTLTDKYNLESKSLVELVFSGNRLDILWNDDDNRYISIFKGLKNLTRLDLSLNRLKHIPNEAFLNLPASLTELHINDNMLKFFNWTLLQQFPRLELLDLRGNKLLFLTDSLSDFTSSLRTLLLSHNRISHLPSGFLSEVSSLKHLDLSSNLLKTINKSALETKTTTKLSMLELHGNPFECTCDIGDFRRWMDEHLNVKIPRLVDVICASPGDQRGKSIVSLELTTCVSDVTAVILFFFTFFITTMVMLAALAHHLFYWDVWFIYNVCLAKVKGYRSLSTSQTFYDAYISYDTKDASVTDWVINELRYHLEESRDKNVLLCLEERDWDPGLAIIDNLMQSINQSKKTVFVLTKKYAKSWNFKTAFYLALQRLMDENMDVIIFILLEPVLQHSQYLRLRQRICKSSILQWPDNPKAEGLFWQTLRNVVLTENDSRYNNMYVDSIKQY
The experiment in a line: TLR8 human PBMC cell-based assay, TLR8 agonist Compound A stimulation, cytokine (TNFa and IL12p40) readout. Conditions: human PBMCs, Compound A 800 nM, 6 hours; Table 26; read-out: TLR-8 EC50. The protocol:
Cryopreserved human PBMCs from healthy donors were thawed and resuspended in RPMI-1640 media with L-glutamine (Corning) supplemented with 10% Fetal Bovine Serum (Hyclone) and 1X Penicillin-Streptomycin (Corning). After counting, the cell density was adjusted to 2 million cells/ml and incubated for 1 hour at 37° C., 5% CO2 for recovery. Following the recovery, the cells were plated by adding 50p per well (100,000 cells) to 384-well cell culture plates (Greiner) containing 250nl of test antagonists in 100% DMSO per well, in a 10 points dose response in quadruplicates. PBMCs were incubated in the presence of antagonists for one hour at 37° C., 5% CO2 before being stimulated with TLR8 agonist. Compound A (Gilead Sciences, U.S. Pat. No. 10,285,990) was used as the TLR8 agonist at a final concentration of 800 nM. PBMCs were incubated in the presence of antagonist and the TLR8 agonist for an additional 6 hours at 37° C., […]. At the end of the incubation, the cell culture plates were centrifuged at 500 g for 5 min, and the cell culture supernatant was collected. The level of cytokines (TNFa and IL12p40) in the supernatant was measured by electrochemiluminescence immunoassays (Mesoscale Discovery) following manufacturer's recommended protocols. The level of cytokine measured was plotted against the antagonist concentration and fitted to a sigmoidal function to determine the EC50, which are shown below in Table 11.

Where [5] appears, read: GS-986 400 nM, 6 hours, Table 26.
[6] abbreviates: ODN-2216 3 μM, 6 hours, Table 26.

Where two headings read alike, the source gives them in different places.

As to `Cc1cc(-c2[nH]c3cc(-c4ccnc(N5CCNCC5)c4)ccc3c2C)cc(C)n1` [Example 64], the EC50 was 315 nM in test [1] (setting [5]) and 136 nM in test [2] (setting [6]). Moreover, the IC50 in test [3] is 20300 nM.

As to `Cc1cc(-c2[nH]c3ccc(C4CCCNC4)cc3c2C(C)C)cc(C)n1` (centres unmarked) [Example C, reference compound], the EC50 in test [1] (Table 27 comparison) amounted to 2.3 nM; in test [2] (Table 27 comparison) it was 583 nM. In test [3], this compound gave an IC50 of 11000 nM.

For the compound `Cc1cc(-c2[nH]c3cc(-c4ccc(N5CCC(C)(N)CC5)nc4)ccc3c2C)cc(C)n1` [Example 23], the half-maximal effective concentration (EC50) is 16.8 nM in test [1] (setting [5]) and 29 nM in test [2] (setting [6]). The same compound yielded an IC50 in test [3] of 18500 nM.

Take `CCc1c(-c2cc(OC)c3ncnn3c2)[nH]c2cc(-c3ccc(N4CCN(C(=O)C56CC(CN5)C6)CC4)nc3)ccc12` [Example 174]: the EC50 worked out at 0.12 nM in test [1] (setting [5]) and 3.33 nM in test [4].

With `Cc1c(-c2cc(C)c3ncnn3c2)[nH]c2cc(-c3nnc(N4CCNCC4)o3)ccc12` [Example 192], the EC50 in test [1] (setting [5]) worked out at 65.6 nM; in test [4], 403 nM.

For `CCc1c(-c2cc(C)c3ncnn3c2)[nH]c2cc(-c3ccc(N4CCN(CCO)CC4)nc3)ccc12` [Example 173], the figures for the EC50 in test [1] (setting [5]) and in test [4] were 0.11 nM and 5.16 nM, respectively.

As to `Cc1c(-c2cc(C)c3ncnn3c2)[nH]c2cc(-c3nnc(C4CCNCC4)o3)ccc12` [Example 191], the 50% effective concentration (EC50) in test [1] (setting [5]) came to 49.1 nM; in test [4] it was 269 nM.

With `Cc1cc(-c2[nH]c3ccc(-c4ccc(N5CCC(C)(N)CC5)nc4)cc3c2C(C)C)cc(C)n1` [Example D, reference compound], the EC50 stood at 12 nM in test [1] (Table 27 comparison) and 249 nM in test [2] (Table 27 comparison). For the same compound, half-maximal inhibition in test [3] (IC50) was put at 7800 nM.

On to `Cc1cc(-c2[nH]c3cc(-c4ccc(N5CCNCC5)nc4)ccc3c2C2CC2)cn2ncnc12` [Example 175], for which the EC50 is 0.15 nM in test [1] (setting [5]) and 8.15 nM in test [4].

As for `Cc1cc(-c2[nH]c3cc(-c4ccc(N5CCN(CC(=O)N(C)C)CC5)nc4)ccc3c2C)cc(C)n1` [Example 116], the concentration giving a half-maximal response (EC50) came out at 140 nM in test [1] (setting [5]) and 67.9 nM in test [2] (setting [6]).

As for `CNCC(=O)N1CCN(c2ccc(-c3ccc4c(C)c(-c5cc(C)nc(C)c5)[nH]c4c3)cn2)CC1` [Example 136], the EC50 in test [1] (setting [5]) amounted to 37.8 nM; in test [2] (setting [6]), 45.6 nM.
